From paper PMC11938873 (Science Progress, 2025)

Assays:
IvAIS1 [1] = test: GC-MS product assay, isoeugenol formation; type: biochemical, Illicium verum; conditions: NADPH co-substrate; pH 7.0, 45 °C
IvAIS1 [2] = test: GC-MS product assay, t-anol formation; type: biochemical, Illicium verum; conditions: NADPH co-substrate; pH 7.0, 40 °C

| Km (IvAIS1 [1]) | Km (IvAIS1 [2]) | SMILES |
| --- | --- | --- |
| 438 ± 44.3 µM | – | COc1cc(/C=C/COC(C)=O)ccc1O [coniferyl acetate] |
| – | 480 ± 86.6 µM | CC(=O)OC/C=C/c1ccc(O)cc1 [coumaryl acetate] |
